The values that follow come from ChEMBL document CHEMBL1201862, “PubChem BioAssay data set” (2004).

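Following 48 hours of exposure in 96-well plates, responses at five concentrations were used to interpolate endpoints linearly. Abbreviation: GI50, concentration required for 50% inhibition of growth.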 Activity calls are given as the source filed them. Cut-off read from the data, not from the text of the source: active = GI50 up to about 1.1 µM and inactive = higher.

A word on the GI50: it is the concentration giving 50% growth inhibition.

Some test systems named below: A549; HCC 2998; HCT-15; HL-60; LXFL 529; M14; NCI-H522; RXF 393; SF-295; SK-OV-3; UACC-62; EKVX; HOP-62; OVCAR-5; SW-620.
Holding throughout (assay): DTP human tumour cell line panel, 48 h

Take `CC(Oc1ccc(OCC2CCCCC2)cc1)C(=O)OCC(=O)c1ccc(-c2ccccc2)cc1` (centres undefined): the GI50 was > 100 µM (inactive) with A549; > 100 µM (inactive) in the test with HCC 2998; above 100 µM in the test with HCT-15; > 100 µM (inactive) in the test on HL-60; > 100 µM (inactive) with LXFL 529; > 100 µM (inactive) in the test on M14. For the same compound, the GI50 with NCI-H522, in the test with RXF 393, with SF-295, with SK-OV-3 and in the test on UACC-62 was > 100 µM (inactive) each time.

Consider `NC(=O)NC1C(C(N)=O)N(Cc2ccccc2)C(=O)N1Cc1ccccc1` (centres undefined), for which the GI50 is > 100 µM (inactive) in the test with A549; > 100 µM (inactive) in the test with EKVX; > 100 µM (inactive) in the test on HCC 2998; above 100 µM with HCT-15; > 100 µM (inactive) in the test on HL-60; > 100 µM (inactive) in the test on HOP-62. The GI50 in the test on LXFL 529 was > 100 µM (inactive); with M14, > 100 µM (inactive); in the test with NCI-H522, > 100 µM (inactive); with OVCAR-5, 40.7 µM (inactive); in the test with SF-295 it was > 100 µM (inactive); with SK-OV-3 it was > 100 µM (inactive). Moreover, the GI50 in the test with SW-620 and in the test with UACC-62 was > 100 µM (inactive) in each case.

Consider `COc1cc2c(cc1OC)[C@]1(O)C(=O)c3ccc4c(c3O[C@@H]1CO2)C[C@H](C(C)(C)O)O4`, for which the GI50 is > 100 µM (inactive) in the test with A549; 10.3 µM (inactive) with EKVX; > 100 µM (inactive) with HCC 2998; 24.9 µM (inactive) in the test with HL-60; > 100 µM (inactive) with HOP-62; 56.1 µM (inactive) in the test on LXFL 529. The GI50 in the test with M14 is > 100 µM (inactive); with NCI-H522, 5.86 µM (inactive); with OVCAR-5 it was > 100 µM (inactive); in the test on RXF 393 it was 8.3 µM (inactive); with SK-OV-3, > 100 µM (inactive); with SW-620, > 100 µM (inactive). Moreover, the GI50 in the test with UACC-62 was > 100 µM (inactive).

As for `N#CC(NNC(=O)Cc1ccccc1)c1ccc([N+](=O)[O-])cc1` (centres undefined), the GI50 in the test with A549 is > 100 µM (inactive); with HCT-15, above 100 µM; in the test on HL-60, > 100 µM (inactive); in the test on HOP-62, > 100 µM (inactive); in the test on LXFL 529 it was > 100 µM (inactive); with M14, > 100 µM (inactive). The GI50 with NCI-H522, in the test with OVCAR-5, with RXF 393, with SF-295, with SK-OV-3 and in the test with SW-620 was > 100 µM (inactive) throughout. The GI50 in the test with UACC-62 was > 100 µM (inactive).

In the case of `N#CCCc1nc2ccc(Br)cc2c(=O)n1CCO`, the GI50 in the test with A549 is > 100 µM (inactive); in the test with EKVX, > 100 µM (inactive); in the test with HCC 2998 it was > 100 µM (inactive); in the test with HCT-15, above 100 µM; in the test with HL-60 it was > 100 µM (inactive); with HOP-62, > 100 µM (inactive). Moreover, the GI50 in the test on LXFL 529, with M14, in the test on NCI-H522, in the test on RXF 393, in the test with SF-295 and with SK-OV-3 was > 100 µM (inactive) each time. Further, the GI50 with SW-620 and with UACC-62 was > 100 µM (inactive) each time.

As for `CC1=CC(=O)NP(=O)(Oc2ccc(Cl)cc2)N1` (centres undefined), the GI50 was > 100 µM (inactive) in the test with A549; > 100 µM (inactive) with EKVX; above 100 µM in the test with HCT-15; 55.6 µM (inactive) with HL-60; > 100 µM (inactive) with HOP-62; > 100 µM (inactive) with LXFL 529. The GI50 in the test with M14, with NCI-H522, in the test on OVCAR-5, in the test on RXF 393, in the test on SF-295 and in the test on SK-OV-3 was > 100 µM (inactive) each time. The GI50 in the test with SW-620 and in the test on UACC-62 was > 100 µM (inactive) each time.

Regarding `O=C1C(c2ccccc2)=C(c2ccccc2)[C@H](c2ccccc2)[C@]1(Cc1nnn(-c2ccc([N+](=O)[O-])cc2)c1N1CCOCC1)c1ccccc1`, the GI50 with A549 is > 37.5 µM (inactive); in the test with EKVX, > 37.5 µM (inactive); with HCC 2998 it was > 37.5 µM (inactive); in the test on HCT-15 it was above 37.5 µM; in the test with HL-60 it was > 37.5 µM (inactive); in the test on HOP-62 it was > 37.5 µM (inactive). Further, the GI50 in the test on LXFL 529 was 24.4 µM (inactive); in the test on M14, > 37.5 µM (inactive); in the test on RXF 393, 9.62 µM (inactive); in the test on SF-295, 35.6 µM (inactive); in the test with SK-OV-3, > 37.5 µM (inactive); with SW-620, > 37.5 µM (inactive). In addition, the GI50 with UACC-62 is > 37.5 µM (inactive).

On to `Cc1ccc(S(=O)(=O)N[C@H](C(=O)O)c2ccccc2)cc1`, for which the GI50 is > 100 µM (inactive) in the test with A549; > 100 µM (inactive) in the test on EKVX; > 100 µM (inactive) with HCC 2998; above 100 µM in the test on HCT-15; > 100 µM (inactive) in the test with HL-60; > 100 µM (inactive) in the test on LXFL 529. For the same compound, the GI50 in the test on M14, with NCI-H522, with OVCAR-5, in the test with RXF 393, in the test on SF-295 and with SK-OV-3 was > 100 µM (inactive) each time. Also, the GI50 in the test on SW-620 and with UACC-62 was > 100 µM (inactive) throughout.

As to `CCCCCCCCCCCC(=O)OCC1OC(n2cc(F)c(=O)[nH]c2=O)C(NC(=O)OCc2ccccc2)C(O)C1O` (centres undefined), the GI50 was 20.8 µM (inactive) in the test with A549; 30.5 µM (inactive) in the test on EKVX; 18.4 µM (inactive) in the test on HCC 2998; 19.7 µM with HCT-15; 20.6 µM (inactive) with HL-60; 44.9 µM (inactive) in the test with HOP-62. The GI50 in the test with LXFL 529 was 18.6 µM (inactive); with M14 it was 19.6 µM (inactive); in the test on NCI-H522 it was 14.5 µM (inactive); in the test with RXF 393, 27.2 µM (inactive); in the test on SF-295 it was 27.9 µM (inactive); with SK-OV-3, 63.7 µM (inactive). Further, the GI50 in the test with SW-620 is 20.6 µM (inactive); with UACC-62, 19.3 µM (inactive).

For the compound `CC(C)C(/C=C/c1ccccc1)=N\NC(=O)N/N=C(/C=C/c1ccccc1)C(C)C`, the GI50 was 23.1 µM (inactive) in the test with A549; 8.36 µM (inactive) in the test on EKVX; 16 µM (inactive) in the test on HCC 2998; 20.7 µM in the test with HCT-15; 15.2 µM (inactive) in the test on HL-60; 40.6 µM (inactive) with HOP-62. Besides, the GI50 with LXFL 529 is 23.2 µM (inactive); in the test with M14, 39.4 µM (inactive); in the test with NCI-H522, 17.1 µM (inactive); in the test with OVCAR-5 it was 38.2 µM (inactive); in the test on SF-295, 39.9 µM (inactive); in the test on SK-OV-3 it was 40.2 µM (inactive). Moreover, the GI50 in the test on SW-620 is 37 µM (inactive); in the test on UACC-62, 56.9 µM (inactive).

On to `CC(C)(C)C(=O)O[C@@H]1COC2C(O)COC21` (some centres undefined), for which the GI50 in the test on A549, in the test with HCC 2998, with HL-60, in the test with HOP-62, in the test on LXFL 529 and in the test with M14 was > 100 µM (inactive) throughout. Besides, the GI50 in the test on NCI-H522, in the test with OVCAR-5, in the test on RXF 393, in the test with SF-295, with SW-620 and in the test on UACC-62 was > 100 µM (inactive) throughout.

Consider `O=[N+]([O-])c1cccc(C2SCc3nc4ccccc4n32)c1` (centres undefined), for which the GI50 in the test with A549 was > 100 µM (inactive); with EKVX it was 66.2 µM (inactive); with HL-60, 54.3 µM (inactive); in the test with HOP-62, > 100 µM (inactive); in the test with LXFL 529 it was 55.8 µM (inactive); with OVCAR-5, 39.3 µM (inactive). The GI50 was 73.5 µM (inactive) in the test with RXF 393; 73.5 µM (inactive) with SF-295; > 100 µM (inactive) in the test on SK-OV-3; > 100 µM (inactive) in the test with SW-620; 34.3 µM (inactive) in the test on UACC-62.

Consider `N#CC1C2CCC3(CC2CCN1C(=O)c1ccccc1)OCCO3` (centres undefined), for which the GI50 in the test with A549 was > 100 µM (inactive); in the test with EKVX it was > 100 µM (inactive); with HCC 2998, > 100 µM (inactive); with HCT-15, above 100 µM; with HL-60 it was > 100 µM (inactive); in the test with HOP-62, > 100 µM (inactive). In addition, the GI50 in the test on LXFL 529, in the test on M14, in the test with OVCAR-5, in the test with RXF 393, with SF-295 and in the test on SK-OV-3 was > 100 µM (inactive) each time. The GI50 with SW-620 and in the test with UACC-62 was > 100 µM (inactive) in each case.

`N/N=C1\C(=O)N(Cc2ccccc2)C(=O)C1C(=O)NCc1ccccc1` (centres undefined): the GI50 in the test with A549 was > 100 µM (inactive); in the test on EKVX, > 100 µM (inactive); in the test with HCC 2998, > 100 µM (inactive); with HCT-15, above 100 µM; in the test with HL-60, > 100 µM (inactive); in the test with HOP-62, > 100 µM (inactive). The GI50 in the test with LXFL 529, with M14, in the test on NCI-H522, in the test with OVCAR-5, in the test on RXF 393 and in the test on SF-295 was > 100 µM (inactive) each time. Besides, the GI50 in the test with SW-620 and in the test with UACC-62 was > 100 µM (inactive) throughout.

Regarding `CC1=C(C(=O)NCc2ccccc2)C(c2ccc([N+](=O)[O-])cc2)C(C(=O)NCc2ccccc2)=C(C)N1`, the GI50 was 31.9 µM (inactive) in the test with A549; > 100 µM (inactive) in the test on EKVX; 39.8 µM (inactive) in the test with HCC 2998; 45.4 µM in the test on HCT-15; 21.2 µM (inactive) in the test on HL-60; > 100 µM (inactive) in the test on HOP-62. Moreover, the GI50 was 36.7 µM (inactive) in the test with LXFL 529; 21.8 µM (inactive) in the test on M14; 28.5 µM (inactive) in the test with NCI-H522; 25.4 µM (inactive) in the test on OVCAR-5; 31.6 µM (inactive) in the test on RXF 393; 37.1 µM (inactive) with SF-295. Besides, the GI50 is 63.7 µM (inactive) in the test on SW-620 and 16.8 µM (inactive) with UACC-62.
